Measured values from PubChem BioAssay AID1259407 (Chemical Carcinogenesis Research Information System (CCRIS), 2018).
Activity calls are given as the source filed them. How the calls were made is not given here.

Test system: CCRIS mutagenicity, Ames/micronucleus/aberration tests
Test: CCRIS mutagenicity studies
[1] = Test System: AMES SALMONELLA TYPHIMURIUM, Strain/Indicator: TA98, Metabolic Activation: NONE, Method: STANDARD PLATE
[2] = Test System: AMES SALMONELLA TYPHIMURIUM, Strain/Indicator: TA98, Metabolic Activation: RAT, LIVER, S-9, AROCLOR 1254, Method: STANDARD PLATE
[3] = Test System: AMES SALMONELLA TYPHIMURIUM, Strain/Indicator: TA100, Metabolic Activation: NONE, Method: STANDARD PLATE
[4] = Test System: AMES SALMONELLA TYPHIMURIUM, Strain/Indicator: TA100, Metabolic Activation: RAT, LIVER, S-9, AROCLOR 1254, Method: STANDARD PLATE

SMILES: C=CC(=O)OC
- mutagenic call (Test System: AMES SALMONELLA TYPHIMURIUM, Strain/Indicator: TA97, Metabolic Activation: HAMSTER, LIVER, S-9, AROCLOR 1254 (10%), Method: PREINCUBATION): inactive; negative
- mutagenic call (Test System: AMES SALMONELLA TYPHIMURIUM, Strain/Indicator: TA97, Metabolic Activation: HAMSTER, LIVER, S-9, AROCLOR 1254 (30%), Method: PREINCUBATION): inactive; negative
- mutagenic call (Test System: AMES SALMONELLA TYPHIMURIUM, Strain/Indicator: TA97, Metabolic Activation: NONE, Method: PREINCUBATION): inactive; negative
- mutagenic call (Test System: AMES SALMONELLA TYPHIMURIUM, Strain/Indicator: TA97, Metabolic Activation: RAT, LIVER, S-9, AROCLOR 1254 (10 OR 30%), Method: PREINCUBATION): inactive; negative
- mutagenic call (Test System: AMES SALMONELLA TYPHIMURIUM, Strain/Indicator: TA98, Metabolic Activation: HAMSTER, LIVER, S-9, AROCLOR 1254 (10%), Method: PREINCUBATION): inactive; negative
- mutagenic call (Test System: AMES SALMONELLA TYPHIMURIUM, Strain/Indicator: TA98, Metabolic Activation: HAMSTER, LIVER, S-9, AROCLOR 1254 (30%), Method: PREINCUBATION): inactive; negative
- mutagenic call (Test System: AMES SALMONELLA TYPHIMURIUM, Strain/Indicator: TA98, Metabolic Activation: NONE, Method: PREINCUBATION): inactive; negative
- mutagenic call [1]: inactive; negative
- mutagenic call (Test System: AMES SALMONELLA TYPHIMURIUM, Strain/Indicator: TA98, Metabolic Activation: RAT, LIVER, S-9, AROCLOR 1254 (10%), Method: PREINCUBATION): inactive; negative
- mutagenic call (Test System: AMES SALMONELLA TYPHIMURIUM, Strain/Indicator: TA98, Metabolic Activation: RAT, LIVER, S-9, AROCLOR 1254 (30%), Method: PREINCUBATION): inactive; negative
- mutagenic call [2]: inactive; negative
- mutagenic call (Test System: AMES SALMONELLA TYPHIMURIUM, Strain/Indicator: TA98, Metabolic Activation: RAT, LIVER, S-9, SODIUM PHENOBARBITAL, Method: STANDARD PLATE): inactive; negative
- mutagenic call (Test System: AMES SALMONELLA TYPHIMURIUM, Strain/Indicator: TA100, Metabolic Activation: HAMSTER, LIVER, S-9, AROCLOR 1254 (10%), Method: PREINCUBATION): inactive; negative
- mutagenic call (Test System: AMES SALMONELLA TYPHIMURIUM, Strain/Indicator: TA100, Metabolic Activation: HAMSTER, LIVER, S-9, AROCLOR 1254 (30%), Method: PREINCUBATION): inactive; negative
- mutagenic call (Test System: AMES SALMONELLA TYPHIMURIUM, Strain/Indicator: TA100, Metabolic Activation: NONE, Method: PREINCUBATION): inactive; negative
- mutagenic call [3]: inactive; negative
- mutagenic call (Test System: AMES SALMONELLA TYPHIMURIUM, Strain/Indicator: TA100, Metabolic Activation: RAT, LIVER, S-9, AROCLOR 1254 (10 OR 30%), Method: PREINCUBATION): inactive; negative
- mutagenic call (Test System: AMES SALMONELLA TYPHIMURIUM, Strain/Indicator: TA100, Metabolic Activation: RAT, LIVER, S-9, AROCLOR 1254, Method: PREINCUBATION): inactive; negative
- mutagenic call [4]: inactive; negative
- mutagenic call (Test System: AMES SALMONELLA TYPHIMURIUM, Strain/Indicator: TA100, Metabolic Activation: RAT, LIVER, S-9, SODIUM PHENOBARBITAL, Method: STANDARD PLATE): inactive; negative
- mutagenic call (Test System: AMES SALMONELLA TYPHIMURIUM, Strain/Indicator: TA1535, Metabolic Activation: HAMSTER, LIVER, S-9, AROCLOR 1254 (10%), Method: PREINCUBATION): inactive; negative
- mutagenic call (Test System: AMES SALMONELLA TYPHIMURIUM, Strain/Indicator: TA1535, Metabolic Activation: HAMSTER, LIVER, S-9, AROCLOR 1254 (30%), Method: PREINCUBATION): inactive; negative
- mutagenic call (Test System: AMES SALMONELLA TYPHIMURIUM, Strain/Indicator: TA1535, Metabolic Activation: NONE, Method: PREINCUBATION): inactive; negative
- mutagenic call (Test System: AMES SALMONELLA TYPHIMURIUM, Strain/Indicator: TA1535, Metabolic Activation: NONE, Method: STANDARD PLATE): inactive; negative
- mutagenic call (Test System: AMES SALMONELLA TYPHIMURIUM, Strain/Indicator: TA1535, Metabolic Activation: RAT, LIVER, S-9, AROCLOR 1254 (10%), Method: PREINCUBATION): inactive; negative
- mutagenic call (Test System: AMES SALMONELLA TYPHIMURIUM, Strain/Indicator: TA1535, Metabolic Activation: RAT, LIVER, S-9, AROCLOR 1254 (30%), Method: PREINCUBATION): inactive; negative
- mutagenic call (Test System: AMES SALMONELLA TYPHIMURIUM, Strain/Indicator: TA1535, Metabolic Activation: RAT, LIVER, S-9, AROCLOR 1254, Method: STANDARD PLATE): inactive; negative
- mutagenic call (Test System: AMES SALMONELLA TYPHIMURIUM, Strain/Indicator: TA1535, Metabolic Activation: RAT, LIVER, S-9, SODIUM PHENOBARBITAL, Method: STANDARD PLATE): inactive; negative
- mutagenic call (Test System: AMES SALMONELLA TYPHIMURIUM, Strain/Indicator: TA1537, Metabolic Activation: HAMSTER, LIVER, S-9, AROCLOR 1254 (10%), Method: PREINCUBATION): inactive; negative
- mutagenic call (Test System: AMES SALMONELLA TYPHIMURIUM, Strain/Indicator: TA1537, Metabolic Activation: NONE, Method: PREINCUBATION): inactive; negative
- mutagenic call (Test System: AMES SALMONELLA TYPHIMURIUM, Strain/Indicator: TA1537, Metabolic Activation: NONE, Method: STANDARD PLATE): inactive; negative
- mutagenic call (Test System: AMES SALMONELLA TYPHIMURIUM, Strain/Indicator: TA1537, Metabolic Activation: RAT, LIVER, S-9, AROCLOR 1254 (10%), Method: PREINCUBATION): inactive; negative
- mutagenic call (Test System: AMES SALMONELLA TYPHIMURIUM, Strain/Indicator: TA1537, Metabolic Activation: RAT, LIVER, S-9, AROCLOR 1254, Method: STANDARD PLATE): inactive; negative
- mutagenic call (Test System: AMES SALMONELLA TYPHIMURIUM, Strain/Indicator: TA1537, Metabolic Activation: RAT, LIVER, S-9, SODIUM PHENOBARBITAL, Method: STANDARD PLATE): inactive; negative
- mutagenic call (Test System: AMES SALMONELLA TYPHIMURIUM, Strain/Indicator: TA1538, Metabolic Activation: NONE, Method: STANDARD PLATE): inactive; negative
- mutagenic call (Test System: AMES SALMONELLA TYPHIMURIUM, Strain/Indicator: TA1538, Metabolic Activation: RAT, LIVER, S-9, AROCLOR 1254, Method: STANDARD PLATE): inactive; negative
- mutagenic call (Test System: AMES SALMONELLA TYPHIMURIUM, Strain/Indicator: TA1538, Metabolic Activation: RAT, LIVER, S-9, SODIUM PHENOBARBITAL, Method: STANDARD PLATE): inactive; negative
- mutagenic call (Test System: CHINESE HAMSTER OVARY, Strain/Indicator: CHO-K1-BH4 (HGPRT)/6-THIOGUANINE, Metabolic Activation: NONE, Method: SUSPENSION/PLATE): active; positive
- mutagenic call (Test System: CHINESE HAMSTER OVARY, Strain/Indicator: CHO-K1-BH4 (HGPRT), Metabolic Activation: NONE, Method: SUSPENSION/PLATE): active; positive
- mutagenic call (Test System: MOUSE LYMPHOMA, Strain/Indicator: L5178Y (TK+/TK-), Metabolic Activation: RAT, LIVER, S-9, AROCLOR 1254, Method: SUSPENSION/PLATE): active; positive. reevaluation of results: positive

SMILES: COC1=CC(=O)C(=O)C(C(C)(C)C)=C1
- mutagenic call [1]: inactive; negative
- mutagenic call [2]: inactive; negative
- mutagenic call [3]: inactive; negative
- mutagenic call [4]: inactive; negative

SMILES: Cc1c2ccccc2c(CO)c2ccc3ccccc3c12
- mutagenic call (Test System: AMES SALMONELLA TYPHIMURIUM, Strain/Indicator: TA98, Metabolic Activation: HUMAN, LIVER, CYTOSOL, PAPS, Method: PREINCUBATION): active; positive
- mutagenic call (Test System: AMES SALMONELLA TYPHIMURIUM, Strain/Indicator: TA100, Metabolic Activation: RAT, LIVER, PARENCHYMAL CELLS (CRYOPRESERVED), Method: PREINCUBATION): inactive; negative
- mutagenic call (Test System: AMES SALMONELLA TYPHIMURIUM, Strain/Indicator: TA100, Metabolic Activation: RAT, LIVER, PARENCHYMAL CELLS (FRESHLY ISOLATED), Method: PREINCUBATION): active; positive
- mutagenic call [4]: active; positive
- mutagenic call (Test System: CHINESE HAMSTER V-79, Strain/Indicator: V-79/6-THIOGUANINE, Metabolic Activation: CELL-MEDIATED, Method: STANDARD PLATE): active; positive
- mutagenic call (Test System: CHINESE HAMSTER V-79, Strain/Indicator: V-79/OUABAIN, Metabolic Activation: CELL-MEDIATED, Method: STANDARD PLATE): active; positive
